SMILES strings stand for the structures.

The term melting point denotes the temperature, or range, at which the solid turns liquid. The compound `CCOCc1nc2c(N)nc3cc(NS(=O)(=O)CC)ccc3c2n1CC(C)(C)O` [Example 4, N-[4-Amino-2-ethoxymethyl-1-(2-hydroxy-2-methylpropyl)-1H-imidazo[4,5-c]quinolin-7-yl]ethanesulfonamide] yielded a melting point of 124 to 127 °C.

For `COCCc1nc2c(N)nc3ccc(CCC(=O)N4CCOCC4)cc3c2n1CCCN1CCCC1=O` [Example 101, 1-{3-[4-Amino-2-(2-methoxyethyl)-8-(3-morpholin-4-yl-3-oxo-propyl)-1H-imidazo[4,5-c]quinolin-1-yl]propyl}pyrrolidin-2-one], the melting point is 168 to 170 °C. As for `COCc1nc2c(N)nc3cc(CCC#N)ccc3c2n1CC(C)(C)O` [Example 110, 3-[4-Amino-1-(2-hydroxy-2-methylpropyl)-2-(methoxymethyl)-1H-imidazo[4,5-c]quinolin-7-yl]propanenitrile], the figure is 191 to 193 °C; as for `CCOCc1nc2c(N)nc3cc(CCCN4CCOCC4)ccc3c2n1CC(C)(C)O` [Example 135, 1-[4-Amino-2-(ethoxymethyl)-7-(3-morpholin-4-ylpropyl)-1H-imidazo[4,5-c]quinolin-1-yl]-2-methylpropan-2-ol], 132 to 133 °C; as for `CC(C)Cn1cnc2c(N)nc3ccc(CCO)cc3c21` [Example 96, 2-(4-Amino-1-isobutyl-1H-imidazo[4,5-c]quinolin-8-yl)ethanol], 214 to 216 °C.

Compound `CCc1nc2c(N)nc3cc(CCC(=O)N(C)C)ccc3c2n1CC1CCOCC1` [Example 129, 3-[4-Amino-2-ethyl-1-(tetrahydro-2H-pyran-4-ylmethyl)-1H-imidazo[4,5-c]quinolin-7-yl]-N,N-dimethylpropanamide] showed a melting point of 219 to 220 °C. `COCc1nc2c(N)nc3cc(CCCNS(C)(=O)=O)ccc3c2n1CC(C)(C)O` [Example 109, N-{3-[4-Amino-1-(2-hydroxy-2-methylpropyl)-2-(methoxymethyl)-1H-imidazo[4,5-c]quinolin-7-yl]propyl}methanesulfonamide] came in with a melting point of 205 to 207 °C. Compound `COCc1nc2c(N)nc3cc(CCC(=O)N4CCS(=O)(=O)CC4)ccc3c2n1CC(C)(C)O` [Example 107, 1-[4-Amino-7-[3-(1,1-dioxidothiomorpholin-4-yl)-3-oxopropyl]-2-(methoxymethyl)-1H-imidazo[4,5-c]quinolin-1-yl]-2-methylpropan-2-ol] had a melting point of 190 to 192 °C. Turning to `CCOCc1nc2c(N)nc3ccc(NC(=O)C(C)C)cc3c2n1CC(C)(C)O` [Example 117, N-[4-Amino-2-(ethoxymethyl)-1-(2-hydroxy-2-methylpropyl)-1H-imidazo[4,5-c]quinolin-8-yl]-2-methylpropanamide], the melting point is 259 to 261 °C. Turning to `CC(C)Cn1cnc2c(N)nc3ccc(CCCN4CCCC4=O)cc3c21` [Example 10, 1-{3-[4-Amino-1-(2-methylpropyl)-1H-imidazo[4,5-c]quinolin-8-yl]propyl}pyrrolidin-2-one], the melting point was in the range of 174 to 175 °C. In the case of `CCCCc1nc2c(N)nc3cc(/C=C/C(=O)OC)ccc3c2n1CC(C)C` [Example 8, Methyl(2E)-3-[4-amino-2-butyl-1-(2-methylpropyl)-1H-imidazo[4,5-c]quinolin-7-yl]prop-2-enoate], the melting point lay within 193 to 194 °C. For `CCOCc1nc2c(N)nc3cc(S(C)(=O)=O)ccc3c2n1CCCOC` [Example 7, 2-Ethoxymethyl-1-(3-methoxypropyl)-7-methylsulfonyl-1H-imidazo[4,5-c]quinolin-4-amine] the value was 166.5 to 167.5 °C; for `COC(=O)/C=C/c1ccc2c(c1)nc(N)c1ncn(CC(C)(C)O)c12` [Example 15, Methyl(2E)-3-[4-amino-1-(2-hydroxy-2-methylpropyl)-1H-imidazo[4,5-c]quinolin-7-yl]prop-2-enoate], > 250 °C. `CCOCc1nc2c(N)nc3cc(/C=C/S(=O)(=O)c4ccccc4)ccc3c2n1CCCOC(C)C` [Example 2, 2-Ethoxymethyl-1-(3-isopropoxypropyl)-7-[(E)-2-(phenylsulfonyl)ethenyl]-1H-imidazo[4,5-c]quinolin-4-amine] returned a melting point of 188.5 to 190 °C. In turn, `CC(C)(O)Cn1cnc2c(N)nc3cc(CCC(=O)N4CCOCC4)ccc3c21` [Example 97, 3-[4-Amino-1-(2-hydroxy-2-methylpropyl)-1H-imidazo[4,5-c]quinolin-7-yl]-1-(morpholin-4-yl)propan-1-one] registered a melting point of 217 to 218 °C. The compound `COCc1nc2c(N)nc3cc(CCS(C)(=O)=O)ccc3c2n1CC(C)(C)O` [Example 104, 1-{4-Amino-2-(methoxymethyl)-7-[2-(methylsulfonyl)ethyl]-1H-imidazo[4,5-c]quinolin-1-yl}-2-methylpropan-2-ol] registered a melting point of 210 to 212 °C. Compound `CCOC(=O)CCc1ccc2c(c1)nc(N)c1nc(CC)n(CC3CCOCC3)c12` [Example 132, Ethyl 3-[4-amino-2-ethyl-1-(tetrahydro-2H-pyran-4-ylmethyl)-1H-imidazo[4,5-c]quinolin-7-yl]propanoate] yielded a melting point of 172 to 173 °C.

The values above are taken from US8658666B2, “Substituted imidazoquinolines and imidazonaphthyridines” (3M Innovative Properties Company, priority 2005, dated 2014).
